These are literature values, as cited in patent US20140037713A1, “TRANSDERMAL COMPOSITIONS FOR ANTI-CHOLINERGIC AGENTS” (ANTARES PHARMA IPL, AG, priority 2012, published 2014).

Each structure is given as a SMILES string.

The conditions of this data set: Ref. 2.

Take `CCN(CC)CC#CCOC(=O)C(O)(c1ccccc1)C1CCCCC1` (racemic) [Oxybutynin, d,l (racemic) 4-diethylamino-2-butynyl phenylcyclohexylglycolate]: the “Dissociation const. (pKa)” value was 8.04.
